{"source": "paper PMC6340895", "about": "(Protein & Cell, 2019)", "key": {"[1]": {"system": "pseudotype of GTOV, JUNV, MACV, SABV, CHAPV, LCMV, LUJV, MOPV, EBOV, and MARV", "assay_type": "cell-based"}, "CHAPVpv": {"system": "CHAPVpv", "test": "microbe, parasite or virus in culture", "assay_type": "cell-based, Chapare virus (CHAPV)", "settings": "Mammarenavirus chapareense, read-out: CHAPVpv IC50"}, "JUNVpv": {"system": "JUNVpv", "test": "organism not typed", "assay_type": "cell-based, Junín virus (JUNV)", "settings": "read-out: JUNVpv IC50"}, "SABVpv": {"system": "SABVpv", "test": "organism not typed", "assay_type": "cell-based, Sabiá virus (SABV)", "settings": "read-out: SABVpv IC50"}, "TfR1": {"system": "TfR1", "assay_type": "cell-based"}, "[2]": {"system": "pseudotype of NW pathogenic arenaviruses", "assay_type": "cell-based"}, "LASV": {"system": "LASV", "settings": "cited from earlier work"}}, "data": [{"smiles": "C/C(=N\\NC(=O)CCc1ccc([N+](=O)[O-])cc1)c1ccc(NC(=O)c2ccco2)cc1", "note": "[compound 24, O=C(CCC1=CC=C([N+]([O-])=O)C=C1)N/N=C(C)/C2=CC=C(NC(C3=CC=CO3)=O)C=C2]", "values": [{"measurement": "CC50", "setting": "in vitro", "value": "> 30", "unit": "µM"}]}, {"smiles": "C/C(=N\\NC(=O)CCCc1ccccc1)c1ccc(NC(=O)c2ccco2)cc1", "note": "[compound 56, O=C(CCCC1=CC=CC=C1)N/N=C(C)/C2=CC=C(NC(C3=CC=CO3)=O)C=C2]", "values": [{"measurement": "CC50", "setting": "in vitro", "value": "> 30", "unit": "µM"}]}, {"smiles": "COc1ccc(CCC(=O)N/N=C(\\C)c2ccc(NC(=O)c3ccco3)cc2)c(OC)c1", "note": "[compound 28, O=C(CCC1=C(OC)C=C(OC)C=C1)N/N=C(C)/C2=CC=C(NC(C3=CC=CO3)=O)C=C2]", "values": [{"measurement": "CC50", "setting": "in vitro", "value": "> 30", "unit": "µM"}]}, {"smiles": "Cc1ccc(CCC(=O)CCC(C)c2ccc(NC(=O)c3ccco3)cc2)cc1", "note": "(stereo not shown) [compound 72]", "values": [{"measurement": "Antiviral specificity across pseudotype panel", "setting": "[1]", "value": "largely maintained LASV specificity"}]}, {"smiles": "COc1ccc(CC(=O)N/N=C(\\C)c2ccc(NC(=O)c3ccco3)cc2)cc1", "note": "[compound 54, O=C(CC1=CC=C(OC)C=C1)N/N=C(C)/C2=CC=C(NC(C3=CC=CO3)=O)C=C2]", "values": [{"measurement": "CC50", "setting": "in vitro", "value": "> 30", "unit": "µM"}]}, {"smiles": "C/C(=N\\NC(=O)CCCCc1ccccc1)c1ccc(NC(=O)c2ccco2)cc1", "note": "[compound 27, O=C(CCCCC1=CC=CC=C1)N/N=C(C)/C2=CC=C(NC(C3=CC=CO3)=O)C=C2]", "values": [{"measurement": "CC50", "setting": "in vitro", "value": "> 30", "unit": "µM"}]}, {"smiles": "C/C(=N\\NC(=O)Cc1ccccc1)c1ccc(NC(=O)c2ccco2)cc1", "note": "[compound 7, O=C(CC1=CC=CC=C1)N/N=C(C)/C2=CC=C(NC(C3=CC=CO3)=O)C=C2]", "values": [{"measurement": "CC50", "setting": "in vitro", "value": "> 30", "unit": "µM"}]}, {"smiles": "C/C(=N\\NC(=O)CCc1cccc([N+](=O)[O-])c1)c1ccc(NC(=O)c2ccco2)cc1", "note": "[compound 25, O=C(CCC1=CC([N+]([O-])=O)=CC=C1)N/N=C(C)/C2=CC=C(NC(C3=CC=CO3)=O)C=C2]", "values": [{"measurement": "CC50", "setting": "in vitro", "value": "> 30", "unit": "µM"}]}, {"smiles": "C/C(=N\\NC(=O)CCc1cccc(C)c1)c1ccc(NC(=O)c2ccco2)cc1", "note": "[compound 21, O=C(CCC1=CC(C)=CC=C1)N/N=C(C)/C2=CC=C(NC(C3=CC=CO3)=O)C=C2]", "values": [{"measurement": "Antiviral specificity across pseudotype panel", "setting": "[1]", "value": "largely maintained LASV specificity"}, {"measurement": "CC50", "setting": "in vitro", "value": "> 30", "unit": "µM"}]}, {"smiles": "COc1ccc(CCC(=O)N/N=C(\\C)c2ccc(NC(=O)c3ccco3)cc2)cc1", "note": "[compound 22, O=C(CCC1=CC=C(OC)C=C1)N/N=C(C)/C2=CC=C(NC(C3=CC=CO3)=O)C=C2]", "values": [{"measurement": "CC50", "setting": "in vitro", "value": "> 30", "unit": "µM"}]}, {"smiles": "C/C(=N\\NC(=O)CCc1ccc(C(C)(C)C)cc1)c1ccc(NC(=O)c2ccco2)cc1", "note": "[compound 57, O=C(CCC1=CC=C(C(C)(C)C)C=C1)N/N=C(C)/C2=CC=C(NC(C3=CC=CO3)=O)C=C2]", "values": [{"measurement": "IC50", "setting": "CHAPVpv", "value": 0.0898, "unit": "µM"}, {"measurement": "IC50", "setting": "JUNVpv", "value": 0.096, "unit": "µM"}, {"measurement": "IC50", "setting": "SABVpv", "value": 0.244, "unit": "µM"}, {"measurement": "Cell surface expression of TfR1", "setting": "TfR1", "value": "did not down-regulate"}, {"measurement": "Effect on binding of NW pathogenic viruses", "setting": "[2]", "value": "no effect"}, {"measurement": "CC50", "setting": "in vitro", "value": "> 30", "unit": "µM"}]}, {"smiles": "C/C(=N\\NC(=O)C1CC1c1ccccc1)c1ccc(NC(=O)c2ccco2)cc1", "note": "(stereo not shown) [ST-161]", "values": [{"measurement": "Antiviral specificity", "setting": "LASV", "value": "LASV specific"}]}, {"smiles": "C/C(=N\\NC(=O)CCc1ccc(F)cc1)c1ccc(NC(=O)c2ccco2)cc1", "note": "[compound 26, O=C(CCC1=CC=C(F)C=C1)N/N=C(C)/C2=CC=C(NC(C3=CC=CO3)=O)C=C2]", "values": [{"measurement": "CC50", "setting": "in vitro", "value": "> 30", "unit": "µM"}]}, {"smiles": "C/C(=N\\NC(=O)CCc1ccc(C)cc1)c1ccc(NC(=O)c2ccco2)cc1", "note": "[compound 9, O=C(CCC1=CC=C(C)C=C1)N/N=C(C)/C2=CC=C(NC(C3=CC=CO3)=O)C=C2]", "values": [{"measurement": "CC50", "setting": "in vitro", "value": "> 30", "unit": "µM"}]}, {"smiles": "C/C(=N\\NC(=O)CCc1ccccc1F)c1ccc(NC(=O)c2ccco2)cc1", "note": "[compound 10, O=C(CCC1=C(F)C=CC=C1)N/N=C(C)/C2=CC=C(NC(C3=CC=CO3)=O)C=C2]", "values": [{"measurement": "CC50", "setting": "in vitro", "value": "> 30", "unit": "µM"}]}, {"smiles": "C/C(=N\\NC(=O)CCc1ccccc1C)c1ccc(NC(=O)c2ccco2)cc1", "note": "[compound 20, O=C(CCC1=C(C)C=CC=C1)N/N=C(C)/C2=CC=C(NC(C3=CC=CO3)=O)C=C2]", "values": [{"measurement": "CC50", "setting": "in vitro", "value": "> 30", "unit": "µM"}]}, {"smiles": "C/C(=N\\NC(=O)CCc1ccccc1C(F)(F)F)c1ccc(NC(=O)c2ccco2)cc1", "note": "[compound 30, O=C(CCC1=C(C(F)(F)F)C=CC=C1)N/N=C(C)/C2=CC=C(NC(C3=CC=CO3)=O)C=C2]", "values": [{"measurement": "CC50", "setting": "in vitro", "value": "> 30", "unit": "µM"}]}, {"smiles": "C/C(=N\\NC(=O)CCc1ccc(Br)cc1)c1ccc(NC(=O)c2ccco2)cc1", "note": "[compound 29, O=C(CCC1=CC=C(Br)C=C1)N/N=C(C)/C2=CC=C(NC(C3=CC=CO3)=O)C=C2]", "values": [{"measurement": "Antiviral specificity across pseudotype panel", "setting": "[1]", "value": "largely maintained LASV specificity"}, {"measurement": "CC50", "setting": "in vitro", "value": "> 30", "unit": "µM"}]}, {"smiles": "C/C(=N\\NC(=O)CCc1ccccc1)c1ccc(NC(=O)c2ccco2)cc1", "note": "[compound 3, O=C(CCC1=CC=CC=C1)N/N=C(C)/C2=CC=C(NC(C3=CC=CO3)=O)C=C2]", "values": [{"measurement": "CC50", "setting": "in vitro", "value": "> 30", "unit": "µM"}]}, {"smiles": "C/C(=N\\NC(=O)Cc1ccc(Cl)cc1Cl)c1ccc(NC(=O)c2ccco2)cc1", "note": "[compound 8, O=C(CC1=C(Cl)C=C(Cl)C=C1)N/N=C(C)/C2=CC=C(NC(C3=CC=CO3)=O)C=C2]", "values": [{"measurement": "CC50", "setting": "in vitro", "value": "> 30", "unit": "µM"}]}, {"smiles": "C/C(=N\\NC(=O)CCCc1ccc(C)cc1)c1ccc(NC(=O)c2ccco2)cc1", "note": "[compound 23, O=C(CCCC1=CC=C(C)C=C1)N/N=C(C)/C2=CC=C(NC(C3=CC=CO3)=O)C=C2]", "values": [{"measurement": "CC50", "setting": "in vitro", "value": "> 30", "unit": "µM"}]}]}
